Paper PMC8776995 (Frontiers in Chemistry, 2022)
Several values for one entry are separate records, joined by “and”; a condition that tells them apart may be missing. Equal entries are not always repeated.

Columns and labels:
H460 cells = test: Annexin V/PI flow cytometry for cell apoptosis, H460; assay type: cell-based, human; conditions: for Percentage of apoptosis, Average: average of three runs; for Q2+Q3 / Lymphocytes/Q2: FITC-A+ , PI-A+ Freq. of Parent / Lymphocytes/Q3: FITC-A+ , PI-A- Freq. of Parent / Percentage of apoptosis: single runs; for Q2+Q3: given as fraction; for Lymphocytes/Q2: FITC-A+ , PI-A+ Freq. of Parent / Lymphocytes/Q3: FITC-A+ , PI-A- Freq. of Parent / Percentage of apoptosis: time as in file name (24h, 48h or not given)
Experimental: To establish whether the antiproliferative efficacy is associated with apoptosis, PC-9 and H460 cells were treated with compound e4 or e12 of various concentrations (4, 8 and 12 μM) for 48 h, and then assessed with flow cytometry.
Cell-apoptosis analysis was carried out by flow cytometry using the Annexin V/PI apoptosis kit according to the manufacturer’s manual. Briefly, PC-9 or H460 (3 × 10^4–5 × 10^4/well) cells were seeded in 12-well plates for 24 h, and then treated with 0.1% DMSO (as control) or various concentrations of compound e4 or e12 for 48 h, respectively. Cells were harvested, washed with PBS, and then incubated with 100ul of 1X Annexin V binding buffer containing 1 μl PI and 1 μl FITC Annexin V for 15 min at RT in the dark. 200 µl of 1X binding buffer were added to each tube for flow cytometry analysis (BD LSRFortessa™ Flow Cytometer). The percentages of apoptotic cells were analyzed using FlowJo soft.

PC-9 cells = test: CCK-8 antiproliferation assay, PC-9; conditions: for Inhibitory efficacy: single repeats (Repeat 1-3), given as fraction
[1] = test system: CCND1, CCNA2, CCNB1, CDK2, CDK6 RNA in PC-9 cells; test: qPCR assay for cell cycle-related gene analysis; assay type: cell-based, human; conditions: for CCNB relative mRNA expression (2^-ddCt vs NC, normalised to beta-Actin) / CCND1 relative mRNA expression (2^-ddCt vs NC, normalised to beta-Actin) / CDK6 relative mRNA expression (2^-ddCt vs NC, normalised to beta-Actin): qPCR SYBR_GREEN, NC = 1; for RQ: endogenous control b-Actin, reference sample NC; for 2^ΔΔCт CCNA / 2^ΔΔCт CCNB / 2^ΔΔCт CCND1 / 2^ΔΔCт CDK2: Repeat 1-3, relative to NC = 1
Text: To better understand the mechanisms underlying cell cycle arrest induced by e4 and e12 in NSCLC cells, we assessed the expression levels of a few genes involved in cell cycle regulation, including cyclin D1 (CCND1), cyclin A2 (CCNA2), cyclin B1 (CCNB1), cyclin-dependent kinase 2 (CDK2), and cyclin-dependent kinase 6 (CDK6) in PC-9 by qPCR. […] CCNA2 is known to bind and activate CDK2 and thus promotes the transition through G1/S and G2/M. CCNB1 and CCND1 are essential to mitosis and G1/S transition respectively. While G2/M arrest weas not detected, the changes in these gene expression profiles interpret the G1/S arrests in PC-9 cells treated with e4 and e12. PC-9 cells exposed to the compounds for various periods should be examined further.
Total RNA of cells was extracted and cDNA was synthesized. The primers for the target products were designed as in Table 3.

For `COCCOc1cc2ncnc(Nc3cccc(-c4cn(Cc5cc(Br)cc(Br)c5)nn4)c3)c2cc1OCCOC` [e4, [6,7-Bis-(2-methoxy-ethoxy)-quinazolin-4-yl]-{3-[1-(3,5-dibromo-benzyl)-1H-[1,2,3]triazol-4-yl]-phenyl}-amine], the “Percentage of apoptosis, Average” value (H460 cells; H460, 4uM) was 9.783%, the “Q2+Q3” value (H460 cells; H460, 4uM) was 0.1032 and 0.0852 and 0.1051 and the “Lymphocytes/Q2: FITC-A+ , PI-A+ Freq. of Parent” value (“Lymphocytes/Q2: FITC-A+ ” for short) (H460 cells; H460, 4uM) was 5.85% and 4.70% and 6.80%. The “Lymphocytes/Q3: FITC-A+ , PI-A- Freq. of Parent” value (shortened to “Lymphocytes/Q3: FITC-A+ ”) (H460 cells; H460, 4uM) was 4.47% and 3.82% and 3.71%, the Percentage of apoptosis (H460 cells; H460, 4uM) was 10.32% and 8.52% and 10.51% and the “Percentage of apoptosis, Average” value (H460 cells; H460, 8uM) was 47.9767%. For the same compound, the “Q2+Q3” value (H460 cells; H460, 8uM) was 0.4733 and 0.459 and 0.507, the “Lymphocytes/Q2: FITC-A+ ” value (H460 cells; H460, 8uM) was 41.3% and 35.4% and 44.0% and the “Lymphocytes/Q3: FITC-A+ ” value (H460 cells; H460, 8uM) was 6.03% and 10.5% and 6.70%. For the same compound, the Percentage of apoptosis (H460 cells; H460, 8uM) was 47.33% and 45.9% and 50.7%, the “Percentage of apoptosis, Average” value (H460 cells; H460, 12uM) was 72.3733% and the “Q2+Q3” value (H460 cells; H460, 12uM) was 0.7923 and 0.7087 and 0.6702. The “Lymphocytes/Q2: FITC-A+ ” value (H460 cells; H460, 12uM) was 74.3% and 67.3% and 60.8%, the “Lymphocytes/Q3: FITC-A+ ” value (H460 cells; H460, 12uM) was 4.93% and 3.57% and 6.22% and the Percentage of apoptosis (H460 cells; H460, 12uM) was 79.23% and 70.87% and 67.02%. For the same compound, the “cell apoptosis (flow cytometry)” value (H460 cells; H460, 4, 8 and 12 μM, 48 h) was “significant cell apoptosis”, the IC50 (PC-9 cells; Homo sapiens, PC-9, 48 h, read-out: IC50 (μM) PC-9) was 4.38 ± 0.12 µM and the inhibition at 1 µM (PC-9 cells; Homo sapiens, PC-9, read-out: Inhibitory efficacy, PC-9, 1uM, single repeats (Repeat 1-3), given as fraction) was 4.24%. It also gave an inhibition at 2 µM (PC-9 cells; Homo sapiens, PC-9, read-out: Inhibitory efficacy, PC-9, 2uM, single repeats (Repeat 1-3), given as fraction) of 12.8%, an inhibition at 4 µM (PC-9 cells; Homo sapiens, PC-9, read-out: Inhibitory efficacy, PC-9, 4uM, single repeats (Repeat 1-3), given as fraction) of 40% and an inhibition at 8 µM (PC-9 cells; Homo sapiens, PC-9, read-out: Inhibitory efficacy, PC-9, 8uM, single repeats (Repeat 1-3), given as fraction) of 88.1%. The inhibition at 16 µM (PC-9 cells; Homo sapiens, PC-9, read-out: Inhibitory efficacy, PC-9, 16uM, single repeats (Repeat 1-3), given as fraction) was 85.7%, the Inhibitory efficacy (PC-9 cells; PC-9, 1uM, 1 µM) was 0.05688 and 0.04243 and the Inhibitory efficacy (PC-9 cells; PC-9, 2uM, 2 µM) was 0.1851 and 0.2067. The Inhibitory efficacy (PC-9 cells; PC-9, 4uM, 4 µM) was 0.4288 and 0.3873, the Inhibitory efficacy (PC-9 cells; PC-9, 8uM, 8 µM) was 0.8667 and 0.8549 and the Inhibitory efficacy (PC-9 cells; PC-9, 16uM, 16 µM) was 0.8604 and 0.8477. For the same compound, the “CCNB relative mRNA expression (2^-ddCt vs NC, normalised to beta-Actin)” value ([1]; 4uM) was 0.8081, the “CCNB relative mRNA expression (2^-ddCt vs NC, normalised to beta-Actin)” value ([1]; 8uM) was 0.7848 and the “CCND1 relative mRNA expression (2^-ddCt vs NC, normalised to beta-Actin)” value ([1]; 8uM) was 0.7172. For the same compound, the “CDK6 relative mRNA expression (2^-ddCt vs NC, normalised to beta-Actin)” value ([1]; 8uM) was 0.824, the “CCNB relative mRNA expression (2^-ddCt vs NC, normalised to beta-Actin)” value ([1]; 12uM) was 0.736 and the “CCND1 relative mRNA expression (2^-ddCt vs NC, normalised to beta-Actin)” value ([1]; 12uM) was 0.6074. The “CDK6 relative mRNA expression (2^-ddCt vs NC, normalised to beta-Actin)” value ([1]; 12uM) was 1.051, the RQ ([1]; CCNA mRNA, 4uM) was 0.764 and the RQ ([1]; CCNA mRNA, 8uM) was 0.7042. For the same compound, the RQ ([1]; CCNA mRNA, 12uM) was 0.7817, the “2^ΔΔCт CCNA” value ([1]; 4uM) was 0.7613 and 0.8165 and 0.764 and the “2^ΔΔCт CCNA” value ([1]; 8uM) was 0.7109 and 0.778 and 0.7042. The “2^ΔΔCт CCNA” value ([1]; 12uM) was 0.5857 and 0.5446 and 0.7817, the RQ ([1]; CCNB mRNA, 4uM) was 0.9138 and the RQ ([1]; CCNB mRNA, 8uM) was 0.7783. The RQ ([1]; CCNB mRNA, 12uM) was 1.003, the “2^ΔΔCт CCNB” value ([1]; 4uM) was 0.8081 and 0.8617 and 0.9138 and the “2^ΔΔCт CCNB” value ([1]; 8uM) was 0.7848 and 0.9105 and 0.7783. For the same compound, the “2^ΔΔCт CCNB” value ([1]; 12uM) was 0.736 and 0.7897 and 1.003, the “2^ΔΔCт CCND1” value ([1]; CCND1, 4uM) was 0.8337 and 1.076 and 0.8297 and the “2^ΔΔCт CCND1” value ([1]; CCND1, 8uM) was 0.7172 and 1.068 and 0.8923. The “2^ΔΔCт CCND1” value ([1]; CCND1, 12uM) was 0.6074 and 0.7441 and 0.7112, the “2^ΔΔCт” value ([1]; CCND1, 12uM, normalized to WT (NC), run 20201020-2) was 0.7112 and the RQ ([1]; CCND1 mRNA, 4uM) was 0.8297. For the same compound, the RQ ([1]; CCND1 mRNA, 8uM) was 0.8923, the RQ ([1]; CCND1 mRNA, 12uM) was 0.7112 and the “2^ΔΔCт CDK2” value ([1]; CDK2, 4uM) was 1.17 and 1.2056 and 1.028. The “2^ΔΔCт CDK2” value ([1]; CDK2, 8uM) was 1.1688 and 1.551 and 1.159, the “2^ΔΔCт CDK2” value ([1]; CDK2, 12uM) was 0.9257 and 1.095 and 1.173 and the RQ ([1]; CDK2 mRNA, 4uM) was 1.028. The RQ ([1]; CDK2 mRNA, 8uM) was 1.159.
